Test results taken from patent publication EP0931079B1, “SUBSTITUTED BENZOCYCLOHEPTAPYRIDINE DERIVATIVES USEFUL FOR INHIBITION OF FARNESYL PROTEIN TRANSFERASE” (SCHERING CORPORATION, priority 1996, dated 1998).

How the values were obtained:
COS Cell = COS Cell IC50 (Cell-Based Assay); conditions: range stated for the listed compounds as a group
Description: (§1) FPT IC50 (inhibition of farnesyl protein transferase, in vitro enzyme assay) and COS Cell IC50 (Cell-Based Assay) were determined following the assay procedures described in WO 95/10516, published April 20, 1995. GGPT IC50 (inhibition of geranylgeranyl protein transferase, in vitro enzyme assay), Cell Mat Assay, and anti-tumor activity (in vivo anti-tumor studies) could be determined by the assay procedures described in WO 95/10516. The disclosure of WO 95/10516 is incorporated herein by reference thereto.

Human tumor cells = assay: Soft Agar Assay (anchorage-independent growth, colony outgrowth); assay type: cell-based; conditions: colonies after 10-16 days at 37°C, range stated for the listed compounds as a group, read-out: Soft Agar FPT IC50
Description: Anchorage-independent growth is a characteristic of tumorigenic cell lines. Human tumor cells are suspended in growth medium containing 0.3% agarose and an indicated concentration of a famesyl transferase inhibitor. The solution is overlayed onto growth medium solidified with 0.6% agarose containing the same concentration of farnesyl transferase inhibitor as the top layer. After the top layer is solidified, plates are incubated for 10-16 days at 37°C under 5% CO2 to allow colony outgrowth. After incubation, the colonies are stained by overlaying the agar with a solution of MTT (3-[4,5-dimethyl-thiazol-2-yl]-2,5-diphenyltetrazolium bromide, Thiazolyl blue) (1 mg/mL in PBS). Colonies can be counted and the IC50's can be determined.

[1] = molecular target: T1, farnesyl protein transferase (Homo sapiens, UniProt P49354+P49356); assay: FPT IC50 (H-ras), inhibition of farnesyl protein transferase, in vitro enzyme assay; assay type: biochemical; conditions: range stated for the listed compounds as a group
Description: as §1

[2] = molecular target: T1, farnesyl protein transferase; assay: FPT IC50 (K-ras), inhibition of farnesyl protein transferase, in vitro enzyme assay; assay type: biochemical; conditions: range stated for the listed compounds as a group
Description: as §1

| IC50 (Human tumor cells) [nM] | IC50 [1] [nM] | IC50 [2] [nM] | SMILES | IC50 (COS Cell) [nM] |
| --- | --- | --- | --- | --- |
| ≥ 60 | 1.8 to 28 | 8.6 to 51.9 | NC(=O)CN1CCC(CC(=O)N2CCC([C@H]3c4ncc(Br)cc4CCc4cc(Cl)cc(Br)c43)CC2)CC1 [Compound 2.0] | 6 to 840 |
| ≥ 60 | 1.8 to 28 | 8.6 to 51.9 | CON(C)C(=O)CN1CCC(CC(=O)N2CCC([C@H]3c4ncc(Br)cc4CCc4cc(Cl)cc(Br)c43)CC2)CC1 [Compound 3.0] | 6 to 840 |
| ≥ 60 | 1.8 to 28 | 8.6 to 51.9 | CCN(CC)C(=O)CN1CCC(CC(=O)N2CCC([C@H]3c4ncc(Br)cc4CCc4cc(Cl)cc(Br)c43)CC2)CC1 [Compound 4.0] | 6 to 840 |
|  | 1.8 to 28 | 8.6 to 51.9 | O=C(CN1CCC(CC(=O)N2CCC([C@H]3c4ncc(Br)cc4CCc4cc(Cl)cc(Br)c43)CC2)CC1)NCc1ccccc1 [Compound 5.0] | 6 to 840 |
| ≥ 60 | 1.8 to 28 | 8.6 to 51.9 | O=C(CN1CCC(CC(=O)N2CCC([C@H]3c4ncc(Br)cc4CCc4cc(Cl)cc(Br)c43)CC2)CC1)N[C@@H]1O[C@H](CO)[C@H](O)[C@H](O)[C@H]1O [Compound 6.0] | 6 to 840 |
| ≥ 60 | 1.8 to 28 | 8.6 to 51.9 | O=C(CC1CCN(CC(=O)N2CCOCC2)CC1)N1CCC([C@H]2c3ncc(Br)cc3CCc3cc(Cl)cc(Br)c32)CC1 [Compound 7.0] | 6 to 840 |
| ≥ 60 | 1.8 to 28 | 8.6 to 51.9 | CC(C)(C)OC(=O)N1CCN(C(=O)CN2CCC(CC(=O)N3CCC([C@H]4c5ncc(Br)cc5CCc5cc(Cl)cc(Br)c54)CC3)CC2)CC1 [Compound 8.0] | 6 to 840 |
| ≥ 60 | 1.8 to 28 | 8.6 to 51.9 | O=C(CC1CCN(CC(=O)N2CCNCC2)CC1)N1CCC([C@H]2c3ncc(Br)cc3CCc3cc(Cl)cc(Br)c32)CC1 [Compound 9.0] | 6 to 840 |
|  | 1.8 to 28 |  | CC(C)(C)OC(=O)CN1CCC(CC(=O)N2CCC([C@H]3c4ncc(Br)cc4CCc4cc(Cl)cc(Br)c43)CC2)CC1 [Compound 11.0] |  |
| ≥ 60 | 1.8 to 28 |  | O=C(CC1CCN(CC(O)CO)CC1)N1CCC([C@H]2c3ncc(Br)cc3CCc3cc(Cl)cc(Br)c32)CC1 (stereo partly shown) [Compound 20.0] | 6 to 840 |

| SMILES | IC50 (Human tumor cells) [nM] | IC50 [1] [nM] | IC50 [2] [nM] | IC50 (COS Cell) [nM] |
| --- | --- | --- | --- | --- |
| O=C(CC1CCN(CC(=O)N2CCc3ccccc32)CC1)N1CCC([C@H]2c3ncc(Br)cc3CCc3cc(Cl)cc(Br)c32)CC1 [Compound 10.0] |  | 1.8 to 28 |  | 6 to 840 |
